Assay results as given in US11319324B2, “Pyrazolo-pyrrolo-pyrimidine-dione derivatives as P2X3 inhibitors” (Bayer Aktiengesellschaft, priority 2017, dated 2022).

How the values were obtained:
Type in all cases: cell-based
human P2X2/3 receptors = target: T1, human P2X2/3 receptors (Homo sapiens, UniProt P56373+Q9UBL9); experiment: Intracellular calcium measurement, antagonist activity at human P2X2/3 receptors (hP2X23 1321N1), Fluo8; conditions: for IC50: column 4); 1321N1 cells, human P2X2/3, Fluo8, agonist ATP at EC50; read-out: 4) hP2X2/3 IC50 [nM] (1321N1); for hP2X23/hP2X3* Selectivity (1321N1): ratio of column 4) hP2X2/3 to column 3) hP2X3, 1321N1
T1 construct: expressed in transfected cells; host or cells: human astrocytoma 1321N1 (1312N1 [sic])
T1 sequence (P56373 1-397): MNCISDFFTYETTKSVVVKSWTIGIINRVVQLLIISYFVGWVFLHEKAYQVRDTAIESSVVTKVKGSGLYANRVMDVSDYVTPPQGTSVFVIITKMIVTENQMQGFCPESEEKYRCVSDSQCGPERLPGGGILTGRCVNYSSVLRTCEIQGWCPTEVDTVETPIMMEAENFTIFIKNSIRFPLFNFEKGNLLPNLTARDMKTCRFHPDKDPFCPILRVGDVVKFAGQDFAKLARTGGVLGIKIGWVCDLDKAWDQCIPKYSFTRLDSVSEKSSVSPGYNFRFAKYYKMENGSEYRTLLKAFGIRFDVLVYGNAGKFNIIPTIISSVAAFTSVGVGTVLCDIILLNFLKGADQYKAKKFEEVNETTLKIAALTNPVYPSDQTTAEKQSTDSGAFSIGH
T1 sequence (Q9UBL9 1-471): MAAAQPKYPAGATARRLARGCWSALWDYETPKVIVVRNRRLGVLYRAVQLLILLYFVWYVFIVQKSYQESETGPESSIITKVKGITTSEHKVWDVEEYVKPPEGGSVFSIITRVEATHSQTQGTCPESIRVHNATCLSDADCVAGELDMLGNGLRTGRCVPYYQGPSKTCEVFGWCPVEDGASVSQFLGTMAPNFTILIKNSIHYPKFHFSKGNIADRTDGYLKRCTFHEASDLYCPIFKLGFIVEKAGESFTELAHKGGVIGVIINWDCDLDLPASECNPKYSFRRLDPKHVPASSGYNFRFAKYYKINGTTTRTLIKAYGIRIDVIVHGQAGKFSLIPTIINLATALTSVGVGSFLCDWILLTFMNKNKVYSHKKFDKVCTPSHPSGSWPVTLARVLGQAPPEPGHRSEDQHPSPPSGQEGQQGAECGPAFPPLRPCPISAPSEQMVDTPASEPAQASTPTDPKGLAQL
Procedure: (§1) 3) And 4) Intracellular Calcium Measurement to Compare Antagonist Activity at Human P2X3 Receptors (hP2X3 1321N1) and at Human P2X2/3 Receptors (hP2X23 1321N1)
(§2) The comparison of antagonistic activity at the P2X3 versus the P2X2/3 receptor of the compounds of the invention were performed by use of recombinant cell lines. These cell lines derived originally from the human astrocytoma cell line […] (Macintyre E H, Pontén J, Vatter A E. Acta Pathol Microbiol Scand A. 1972; 80(2):267-83). The cell lines are stably transfected with the human P2X3 receptor forming homotrimeric P2X3 receptors or are co-transfected with P2X2 and P2X3 forming heterotrimeric P2X2/3 receptors. Stimulation of the receptors with the agonist ATP leads to a conformational change of the receptors and influx of extracellular calcium ions through the open ion channel. The cytoplasmatic calcium transient is detected via the calcium sensitive dye Fluo8. The strength of Fluo8 fluorescence signal corresponds to the level of receptor activation. An inhibitor would decrease the signal depending on its potency and concentration. Fluorescence was measured by use of a suitable fluorescence reader.
(§3) On the day before the assay, the cells were plated in culture medium (DMEM high glucose, 10% FCS, 1% MEM non-essential amino acids, 4 mM Glutamax) in 384-well poly-D-lysine coated microtiter plates and kept in a cell incubator (96% humidity, 5% v/v CO2, 37° C.). On the day of the assay medium was exchanged by Fluo8 containing buffer and incubated for 60 minutes. Test compounds were added at various concentrations and plates were incubated for 10 minutes. In the fluorescence reader a 3 seconds baseline measurement was performed and the agonist ATP was applied at EC50 concentration of the respective receptor during constant fluorescence measurement for 120 seconds.

human P2X3 receptor [1] = target: T2, human P2X3 receptor (Homo sapiens, UniProt P56373); experiment: Intracellular calcium measurement, antagonist activity at human P2X3 receptors (hP2X3 1321N1), Fluo8; parameters: expressed in transfected cells; host or cells: human astrocytoma 1321N1 (1312N1 [sic]); conditions: column 3); 1321N1 cells, human P2X3, Fluo8, agonist ATP at EC50
T2 sequence (P56373 1-397): T1 sequence (P56373 1-397)
Procedure: as §1, §2, §3

human P2X3 receptor [2] = target: T2, human P2X3 receptor; experiment: Intracellular calcium measurement to assess antagonist activity at human P2X3 receptors (hP2X3 CHO), photina luminescence; parameters: expressed in transfected cells; host or cells: Chinese hamster ovary (CHO) cells; conditions: column 2), CHO cells, agonist α,β-methylene-ATP at EC50
In short: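 CHO cells stably expressing human P2X3 and mitochondrial photina, plated the day before at 30 °C, then loaded 3 h at 37 °C in 2 mM Ca-tyrode buffer with 5 μg/ml coelenterazine. Agonist-evoked calcium luminescence read immediately; inhibition seen as signal decrease.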

| IC50 (human P2X2/3 receptors) [nM] | hP2X23/hP2X3* Selectivity (1321N1) (human P2X2/3 receptors) | IC50 (human P2X3 receptor [1]) [nM] | IC50 (human P2X3 receptor [2]) [nM] | SMILES |
| --- | --- | --- | --- | --- |
| > 23000 | >12 | 1930 | 695 | CCc1cc2n(CC(=O)Nc3ccc(C)cn3)c3c(c(=O)n2n1)CN(CC1CCOC1)C3=O (stereo not shown) [Example 61] |
| 5150 | 21 | 240 | 55 | CCc1cc2n(CC(=O)Nc3ccc(Cl)cn3)c3c(c(=O)n2n1)CN(CC1CCCO1)C3=O (stereo not shown) [Example 62] |
| 7400 | 20 | 370 | 355 | CCc1cc2n(CC(=O)Nc3ccc(C)cn3)c3c(c(=O)n2n1)CN(CC1CCCO1)C3=O (stereo not shown) [Example 63] |
| > 32000 | >74 | 433 | 430 | CCc1cc2n(CC(=O)Nc3ccccn3)c3c(c(=O)n2n1)CN(C(C)C)C3=O [Example 64] |
| 10500 | 51 | 207 | 200 | CCc1cc2n(CC(=O)Nc3ccc(C)cn3)c3c(c(=O)n2n1)CN(C(C)C)C3=O [Example 65] |
| 5450 | 98 | 56 | 81 | CCc1cc2n(CC(=O)Nc3ccc(Cl)cn3)c3c(c(=O)n2n1)CN(C(C)C)C3=O [Example 66] |
| > 32000 | >73 | 437 | 570 | CCc1cc2n(CC(=O)Nc3ccc(F)cn3)c3c(c(=O)n2n1)CN(CC1CCOC1)C3=O (stereo not shown) [Example 74] |
| 4400 | 50 | 89 | 29 | CC(C)N1Cc2c(n(CC(=O)Nc3ccc(F)cn3)c3cc(Br)nn3c2=O)C1=O [Example 75, 2-[2-bromo-5,8-dioxo-6-(propan-2-yl)-5,6,7,8-tetrahydro-4H-pyrazolo[1,5-a]pyrrolo[3,4-d]pyrimidin-4-yl]-N-(5-fluoropyridin-2-yl)acetamide] |
| 2600 | 61 | 42 | 103 | CCc1cc2n(CC(=O)Nc3ccc(F)cn3)c3c(c(=O)n2n1)CN(CC1CCCN1C(=O)OC(C)(C)C)C3=O (stereo not shown) [Example 81] |

More lines, now with the values behind:

| SMILES | IC50 (human P2X2/3 receptors) [nM] | hP2X23/hP2X3* Selectivity (1321N1) (human P2X2/3 receptors) | IC50 (human P2X3 receptor [1]) [nM] | IC50 (human P2X3 receptor [2]) [nM] |
| --- | --- | --- | --- | --- |
| CCc1cc2n(CC(=O)Nc3ccc(F)cn3)c3c(c(=O)n2n1)CN(C1CCNC1)C3=O (single isomer, unassigned) [Example 278, 2-{2-ethyl-5,8-dioxo-6-[pyrrolidin-3-yl]-5,6,7,8-tetrahydro-4H-pyrazolo[1,5-a]pyrrolo[3,4-d]pyrimidin-4-yl}-N-(5-fluoropyridin-2-yl)acetamide] | > 32000 | >47 | 675 | 650 |
| CC(C)N1Cc2c(n(CC(=O)Nc3ccc(F)cn3)c3cc(C4CC4)nn3c2=O)C1=O [Example 56] | 9950 | 54 | 185 | 73 |
| COCc1cc2n(CC(=O)Nc3ccc(F)cn3)c3c(c(=O)n2n1)CN(C(C)C)C3=O [Example 57] | > 32000 | >121 | 265 | 125 |
| CC(C)N1Cc2c(n(CC(=O)Nc3ccc(F)cn3)c3cc(C4CCOCC4)nn3c2=O)C1=O [Example 58] | 9850 | 277 | 36 | 24 |
| Cc1ccc(NC(=O)Cn2c3c(c(=O)n4nc(C5CCOCC5)cc24)CN(C(C)C)C3=O)nc1 [Example 59] | 13000 | 90 | 145 | 83 |
| CCc1cc2n(CC(=O)Nc3ccc(Cl)cn3)c3c(c(=O)n2n1)CN(CC1CCOC1)C3=O (stereo not shown) [Example 60] | > 19800 | >41 | 480 | 105 |
| CCc1cc2n(CC(=O)Nc3ccc(Br)cn3)c3c(c(=O)n2n1)CN(C(C)C)C3=O [Example 67] | 6350 | 29 | 217 | 185 |
| CCc1cc2n(CC(=O)Nc3ccc(F)cn3)c3c(c(=O)n2n1)CN(CCNC(=O)OC(C)(C)C)C3=O [Example 68, tert-butyl {2-[2-ethyl-4-{2-[(5-fluoropyridin-2-yl)amino]-2-oxoethyl}-5,8-dioxo-5,8-dihydro-4H-pyrazolo[1,5-a]pyrrolo[3,4-d]pyrimidin-6(7H)-yl]ethyl}carbamate] | 1660 | 160 | 10 | 17 |
| Cc1ccc(-c2cc3n(CC(=O)Nc4ccc(F)cn4)c4c(c(=O)n3n2)CN(C(C)C)C4=O)nc1 [Example 69] | 1700 | 447 | 4 | 8 |
| CCOC(=O)c1cc2n(CC(=O)Nc3ccc(F)cn3)c3c(c(=O)n2n1)CN(C(C)C)C3=O [Example 70, ethyl 4-{2-[(5-fluoropyridin-2-yl)amino]-2-oxoethyl}-5,8-dioxo-6-(propan-2-yl)-5,6,7,8-tetrahydro-4H-pyrazolo[1,5-a]pyrrolo[3,4-d]pyrimidine-2-carboxylate] | 1800 | 51 | 36 | 16 |
| CC(C)N1Cc2c(n(CC(=O)Nc3ccc(F)cn3)c3cc(CO)nn3c2=O)C1=O [Example 72] | > 32000 | >136 | 235 | 120 |
| CCc1cc2n(CC(=O)Nc3ccc(F)cn3)c3c(c(=O)n2n1)CN(C[C@H]1CCCO1)C3=O [Example 73, 2-{2-ethyl-5,8-dioxo-6-[(2R)-tetrahydrofuran-2-ylmethyl]-5,6,7,8-tetrahydro-4H-pyrazolo[1,5-a]pyrrolo[3,4-d]pyrimidin-4-yl}-N-(5-fluoropyridin-2-yl)acetamide] | 9500 | 91 | 104 | 122 |
| CCc1cc2n(CC(=O)Nc3ccc(F)cn3)c3c(c(=O)n2n1)CN(C1CCN(C(=O)OC(C)(C)C)CC1)C3=O [Example 76] | > 21500 | >13 | 1670 | 470 |
| CCc1cc2n(CC(=O)Nc3ccc(F)cn3)c3c(c(=O)n2n1)CN(C1CCN(C(=O)OC(C)(C)C)C1)C3=O (stereo not shown) [Example 78] | 6100 | 98 | 62 | 21 |
| CC(C)N1Cc2c(n(CC(=O)Nc3ccc(F)cn3)c3cc(C(=O)NC4CC4)nn3c2=O)C1=O [Example 79] | 4800 | 79 | 61 | 94 |
| CCc1cc2n(CC(=O)Nc3ccc(F)cn3)c3c(c(=O)n2n1)CN(CC1CCN(C(=O)OC(C)(C)C)C1)C3=O (stereo not shown) [Example 80] | 1950 | 31 | 63 | 32 |
